Several values for one entry are separate records, joined by “and”; a condition that tells them apart may be missing. Equal values may be shown once. Read-outs that look alike come from different tables or passages of the source. No end group written: not given here.
Tests used:
Assay type in all cases: cell-based
HeLa cells = assay: MTT cytotoxicity assay in HeLa cells; details: HeLa cells, 200 µg/mL; listed as palindromic peptide
Procedure: (§1) MTT assays were conducted in HeLa cells to evaluate the effect of fluorescent probe incorporation on the in vitro cytotoxic activity of the parent non-conjugated peptides. The cytotoxic effect of peptides 1, Abz-1 RhB-1, 2, and RhB-2 in HeLa cells was peptide concentration-dependent, with the highest anticancer activity observed at 200 µg/mL. Incorporation of 2-Abz and RhB at the N-terminal end reduced cytotoxic activity, while the binding of 2-Abz at the C-terminal end or FAM at the N-terminal end drastically diminished anticancer activity (Table 4).

[1] = MTT cytotoxicity assay in HeLa cells; details: HeLa cells, MTT; read-out: Cytotoxic Activity (IC50)
Procedure: as §1

[2] = tested on: K. pneumoniae ATCC 700603; details: K. pneumoniae ATCC 700603
Procedure: (§2) The minimum inhibitory concentration (MIC) of the peptides was determined by the broth microdilution technique, according to the Clinical and Laboratory Standards Institute (CLSI) guidelines, as previously described. Briefly, bacterial strains were incubated in BHI broth at 37 °C until they reached the exponential growth phase, and inocula were adjusted to 5 × 10^6 CFU/mL using calibration curves. Serial dilutions of the peptides to be evaluated in 96-well plates were made in 90 µL of Mueller Hinton broth at concentrations ranging from 200 to 6.25 µg/mL, and 10 µL of the inoculum adjusted to 5 × 10^6 CFU/mL was added. Finally, the plates were incubated at 37 °C for 24 h, and the absorbance at 620 nm was read. As a negative control, CMH, distilled water, and 10 µL of inoculum were used; for the positive control, vancomycin was used for Gram-positive strains and ciprofloxacin for Gram-negative strains at the MICs dictated by the CLSI; as a technical control, CMH with peptone water was used, and for the growth control, CMH was used with 10 µL of inoculum.
(§3) To determine the minimum bactericidal concentration (MBC), the 96-well plates where the MIC was determined were used as a starting point. From these, an aliquot of the controls and those wells where no apparent bacterial growth was observed were spotted onto trypticase soy agar plates. The plates were incubated at 37 °C for 24 h, and the reading was taken, identifying the lowest concentration of the peptide where there was no bacterial growth as the MBC.

E. coli ATCC 25922 = details: E. coli ATCC 25922
Procedure: as §2, §3

S. aureus ATCC 25923 = details: S. aureus ATCC 25923
Procedure: as §2, §3

E. faecalis ATCC 29212 = details: E. faecalis ATCC 29212
Procedure: as §2, §3

P. aeruginosa ATCC 27853 = details: P. aeruginosa ATCC 27853
Procedure: as §2, §3

[3] = tested on: S. aureus clinical isolate 11719; details: S. aureus clinical isolate 11719
[4] = tested on: clinical isolates of S. aureus; details: stated for the S. aureus clinical isolates together
Procedure: E. coli isolates 1004 (susceptible), 129797 (resistant), and 301755 (MDR) were selected for evaluation. Isolate 1004 was sensitive to all antibiotics tested. […] These findings identify it as a multidrug-resistant (MDR) strain and an extended-spectrum beta-lactamase (ESBL)-producing bacterium. For S. aureus, isolates 109095, 117719, and 124653 were evaluated. All three were resistant to penicillin, indicating beta-lactamase production mediated by the blaZ gene. Studies have shown that up to 90% of S. aureus isolates worldwide are penicillin-resistant, which implies that this antibiotic is ineffective in infections caused by this pathogen. […] Isolate 124653 was resistant to penicillin, tetracycline, and erythromycin, with the latter belonging to the group of macrolides, antibiotics that inhibit protein synthesis through interaction with the 50S rRNA subunit. […]
The minimum inhibitory concentration (MIC) of the peptides was determined by the broth microdilution technique, according to the Clinical and Laboratory Standards Institute (CLSI) guidelines, as previously described. […] Serial dilutions of the peptides to be evaluated in 96-well plates were made in 90 µL of Mueller Hinton broth at concentrations ranging from 200 to 6.25 µg/mL, and 10 µL of the inoculum adjusted to 5 × 10^6 CFU/mL was added. Finally, the plates were incubated at 37 °C for 24 h, and the absorbance at 620 nm was read. […]

[5] = tested on: E. faecalis clinical isolate 213; details: E. faecalis clinical isolate 213
Procedure: (§4) E. coli isolates 1004 (susceptible), 129797 (resistant), and 301755 (MDR) were selected for evaluation. Isolate 1004 was sensitive to all antibiotics tested. […] These findings identify it as a multidrug-resistant (MDR) strain and an extended-spectrum beta-lactamase (ESBL)-producing bacterium. For S. aureus, isolates 109095, 117719, and 124653 were evaluated. All three were resistant to penicillin, indicating beta-lactamase production mediated by the blaZ gene. Studies have shown that up to 90% of S. aureus isolates worldwide are penicillin-resistant, which implies that this antibiotic is ineffective in infections caused by this pathogen. […] Isolate 124653 was resistant to penicillin, tetracycline, and erythromycin, with the latter belonging to the group of macrolides, antibiotics that inhibit protein synthesis through interaction with the 50S […] subunit. For E. faecalis three isolates were selected: strains 213 (sensitive to all the antibiotics tested), strain 82 (resistant to streptomycin), and strain 179 (resistant to gentamicin). These clinical isolates were selected to assess the antimicrobial activity of the peptide RWQWRWQWR and its analogues conjugated to fluorescent molecules in strains against strains with susceptibility profiles.
(§5) The analysis of synthesized peptides in ATCC reference strains and susceptible, resistant, and multidrug-resistant (MDR) clinical isolates was performed. The clinical isolates were obtained from the National Cancer Institute collection and were previously identified and antibiogrammed using the VITEK system. Additionally, the strains were characterized by MALDI-TOF. The strains were re-primed onto trypticase soy agar and subsequently preserved in Brain–Heart Infusion (BHI) broth containing 20% glycerol. For the MIC and MBC assays, the strains were reactivated and cultured in BHI until they reached their exponential growth phase.
as §2, §3

[6] = tested on: E. faecalis clinical isolate 82; details: E. faecalis clinical isolate 82
Procedure: as §4, §5, §2, §3

[7] = tested on: E. coli clinical isolate 301755 (MDR); details: E. coli clinical isolate 301755
Procedure: as §4, §5, §2, §3

[8] = tested on: S. aureus clinical isolate 109095; details: S. aureus clinical isolate 109095
Procedure: as §4, §5, §2, §3

[9] = tested on: S. aureus clinical isolate 124653; details: S. aureus clinical isolate 124653
Procedure: as §4, §5, §2, §3

[10] = tested on: E. coli clinical isolate 1004 (susceptible); details: E. coli clinical isolate 1004
Procedure: as §4, §5, §2, §3

[11] = tested on: E. faecalis clinical isolate 179; details: E. faecalis clinical isolate 179
Procedure: as §4, §5, §2, §3

[12] = tested on: clinical isolates of E. coli; details: stated for the E. coli clinical isolates together
Procedure: as §4, §5, §2, §3

[13] = tested on: E. coli clinical isolate 129797 (resistant); details: E. coli clinical isolate 129797
Procedure: as §4, §5, §2, §3

Hemolysis assay = assay: Hemolysis assay
Procedure: Whole blood was collected into EDTA tubes and centrifuged at 2500 rpm for 10 min. The plasma and buffy coat were removed, and the erythrocytes were washed three times with 0.9% saline to yield a 4% cell suspension. In 96-well plates, 100 µL of peptide dilutions (6.25–200 µg/mL) were prepared in triplicate, and 100 µL of the erythrocyte suspension was added (final hematocrit 2%). Plates were incubated at 37 °C for 2 h, and then centrifuged again at 2500 rpm for 10 min. A 100 µL aliquot of the supernatant was transferred to a fresh plate, and absorbance was measured at 450 nm. Saline and 1× Triton X-100 served as the negative and positive controls, respectively. Hemolysis (%) was calculated as follows: %hemolysis=treatment absorbance−saline absorbance/1×triton absorbance−saline absorbance

Substance: RWQWRWQWR-NH2 [peptide 1, RWQWRWQWR]
- cell viability (HeLa cells): about 20%
- IC50 [1]: 77 µg/mL and 52 µM
- Minimal bactericidal concentration (MBC) [2]: 135 µM
- Minimal inhibitory concentration (MIC) [2]: 67 µM
- Minimal bactericidal concentration (MBC) (E. coli ATCC 25922): 34 µM
- Minimal inhibitory concentration (MIC) (E. coli ATCC 25922): 17 µM
- Minimal bactericidal concentration (MBC) (S. aureus ATCC 25923): 34 µM
- Minimal inhibitory concentration (MIC) (S. aureus ATCC 25923): 17 µM
- Minimal bactericidal concentration (MBC) (E. faecalis ATCC 29212): > 135 µM
- Minimal inhibitory concentration (MIC) (E. faecalis ATCC 29212): 135 µM
- Minimal bactericidal concentration (MBC) (P. aeruginosa ATCC 27853): > 135 µM
- Minimal inhibitory concentration (MIC) (P. aeruginosa ATCC 27853): 67 µM
- Minimal bactericidal concentration (MBC) [3]: > 135 µM
- Minimal inhibitory concentration (MIC) [3]: 135 µM
- MIC [4]: 135 µM
- Minimal bactericidal concentration (MBC) [5]: 135 µM
- Minimal inhibitory concentration (MIC) [5]: 135 µM
- Minimal bactericidal concentration (MBC) [6]: 67/67 µM
- Minimal bactericidal concentration (MBC) [7]: 67 µM
- Minimal inhibitory concentration (MIC) [7]: 34 µM
- Minimal bactericidal concentration (MBC) [8]: 135 µM
- Minimal inhibitory concentration (MIC) [8]: 135 µM
- Minimal bactericidal concentration (MBC) [9]: > 135 µM
- Minimal inhibitory concentration (MIC) [9]: 135 µM
- Minimal bactericidal concentration (MBC) [10]: > 135 µM
- Minimal inhibitory concentration (MIC) [10]: 17 µM
- Minimal bactericidal concentration (MBC) [11]: 135 µM
- Minimal inhibitory concentration (MIC) [11]: 135 µM
- MIC [12]: 17 to 34 µM
- Minimal inhibitory concentration (MIC) [13]: 34/34 µM
- hemolysis (Hemolysis assay; at 200 µg/mL (highest tested concentration), 2 h, 37 °C, read-out: hemolysis): 4.5%
- hemolysis (Hemolysis assay; at the lowest MIC concentration, read-out: Percentage of hemolysis): 1.1%
- selectivity ratio (Hemolysis assay; peptide concentration at 10% hemolysis / IC50 in HeLa cells, read-out: Selectivity index): > 3

— publication PMC12383145, “Fluorescent Peptides Internalize HeLa Cells and Kill Multidrug-Resistant Clinical Bacterial Isolates” (Antibiotics, 2025)
